From ChEMBL document CHEMBL1134831, “2-(3,5-Dimethylphenyl)tryptamine derivatives that bind to the GnRH receptor” (Bioorg Med Chem Lett, 2001)

Target: T1, Gonadotropin-releasing hormone receptor (Rattus norvegicus, UniProt P30969)
T1 sequence (P30969 whole entry): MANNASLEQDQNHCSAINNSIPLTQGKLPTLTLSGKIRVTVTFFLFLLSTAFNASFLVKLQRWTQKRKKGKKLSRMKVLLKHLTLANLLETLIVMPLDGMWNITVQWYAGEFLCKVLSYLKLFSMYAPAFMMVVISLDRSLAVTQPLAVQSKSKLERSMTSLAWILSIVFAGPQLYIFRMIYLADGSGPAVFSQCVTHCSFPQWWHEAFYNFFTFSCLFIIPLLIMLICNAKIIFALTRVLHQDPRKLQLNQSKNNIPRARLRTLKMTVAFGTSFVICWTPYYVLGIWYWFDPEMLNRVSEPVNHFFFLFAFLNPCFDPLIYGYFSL
Assay: Inhibition of rat GnRH receptor binding

IC50 [nM]	SMILES
300	Cc1cc(C)cc(-c2[nH]c3ccccc3c2CCNCCCCc2ccc(N)cc2)c1
200	CCS(=O)(=O)Nc1ccc(CCCCNCCc2c(-c3cc(C)cc(C)c3)[nH]c3ccccc23)cc1
40	CCNS(=O)(=O)Nc1ccc(CCCCNCCc2c(-c3cc(C)cc(C)c3)[nH]c3ccccc23)cc1
300	Cc1cc(C)cc(-c2[nH]c3ccccc3c2CCNCCCCc2ccc(F)cc2)c1
300	Cc1cc(C)cc(-c2[nH]c3ccccc3c2CCNCCCCc2ccc(NS(=O)(=O)c3ccccc3)cc2)c1
220	Cc1cc(C)cc(-c2[nH]c3ccccc3c2CCNCCCCc2ccc(NS(=O)(=O)C(C)C)cc2)c1
28	CCNC(=O)Nc1ccc(CCCCNCCc2c(-c3cc(C)cc(C)c3)[nH]c3ccccc23)cc1
48	CNC(=O)Nc1ccc(CCCCNCCc2c(-c3cc(C)cc(C)c3)[nH]c3ccccc23)cc1
200	CC(=O)Nc1ccc(CCCCNCCc2c(-c3cc(C)cc(C)c3)[nH]c3ccccc23)cc1
47	CNS(=O)(=O)Nc1ccc(CCCCNCCc2c(-c3cc(C)cc(C)c3)[nH]c3ccccc23)cc1
500	Cc1cc(C)cc(-c2[nH]c3ccccc3c2CCNCCCCc2ccc([N+](=O)[O-])cc2)c1
36	Cc1cc(C)cc(-c2[nH]c3ccccc3c2CCNCCCCc2ccc(S(N)(=O)=O)cc2)c1
